Experimental data published in US7641914B2, “Acid-sensitive compounds, their preparation and uses” (Gencell, S.A., priority 2000, dated 2010).

Experiments:
DNA = test: Ethidium bromide fluorescence test of DNA compaction and release in acidic medium; type: physicochemical; conditions: for variation in fluorescence over time (EtBr) / release of DNA over time (increase in EtBr fluorescence): pH 5, 37° C.; for variation in fluorescence over time (EtBr): 0.4 nmol lipid/pg of DNA, DNA not completely compacted; for release of DNA over time (increase in EtBr fluorescence): 1.7 and 6.0 nmol lipid/μg of DNA, complete compaction
Procedure: This was easily shown by a fluorescence test with ethidium bromide (EtBr): the absence of fluorescence reflects the absence of free DNA, that means that the DNA was compacted.
The DNA was brought into contact with increasing quantities of control cationic lipid or of acid-sensitive compound A Syn or Trans, by mixing an equal volume of lipid solutions of different titers with the DNA solutions. Samples of 800 μl of DNA complexes having a concentration of […] were thus prepared in a sodium chloride solution at 150 mM with increasing quantities of control cationic lipid or of acid-sensitive compound A Syn or Trans.
At time t=0, 200 μl of buffer having a concentration of 0.1 mol/l at pH 5 were added to these samples and the samples were stored in an oven at 37° C. The fluorescence with ethidium bromide (EtBr) was measured over time (measurement at 20° C.) using a FluoroMax-2 (Jobin Yvon-Spex), with excitation and emission wavelengths of 260 nm and 590 nm respectively. The slit widths for excitation and for emission were set at 5 nm. The fluorescence value was recorded after addition of 3 μl of ethidium bromide at 1 g/l per ml of DNA/cationic lipid or DNA/acid-sensitive compound solution (at 0.01 mg of DNA/ml).

HeLa cells = test: In vitro transfection of HeLa cells, luciferase activity; type: cell-based, human; conditions: charge ratios 1.0 to 10.0 nmol lipid/μg DNA
Procedure: This study was carried out at 4 different charge ratios: 1.0 or 4.0 or 6.0 or 10.0 nmol of lipid/μg of DNA. Each of these conditions was tested with and without fetal calf serum (A+ or − Serum a))
Culture of the cells: HeLa cells (American Type Culture Collection (ATCC) Manassas, Va., USA) derived from a human cervical epithelium carcinoma, were cultured in the presence of a medium of the MEM (“minimum essential medium”) type with addition of 2 mM L-glutamine, 50 units/ml of penicillin, and 50 units/ml of streptomycin. The medium and the additives were obtained from Gibco/BRL Life Technologies/InvitroGen (Gaithersburg, Md., USA). The cells were cultured in flasks at 37° C. and at 5% carbon dioxide in an incubator. […]
An aliquot of 10 μl of supernatant of the lysate centrifuged (12,000×g) for 5 minutes at 4° C. was measured with the Wallac Victor2 luminometer (1420 Multilabel counter).
The luciferase activity was assayed by the emission of light in the presence of luciferin, of coenzyme A and of ATP for 10 seconds and expressed relative to 2000 treated cells. The luciferase activity was thus expressed as Relative Light Unit (“RLU”) and normalized with the concentration of proteins in the sample obtained using a Pierce BCA kit (Rockford, Ill., USA).

| variation in fluorescence over time (EtBr) (DNA) | release of DNA over time (increase in EtBr fluorescence) (DNA) | time of release of DNA after the addition of acid (DNA; pH 5 and 37° C.) | SMILES | transfection activity (HeLa cells) |
| --- | --- | --- | --- | --- |
| no significant variation in fluorescence | released the DNA over time | a few hours | CCCCCCCCCCCCCCCCCCN(CCCCCCCCCCCCCCCCCC)C(=O)CCCOC1OCC(CNC(=O)CNCCCNCCCCNCCCN)O1 (stereo not drawn) [Compound A Syn, 4-{4-[(2-{3-[4-(3-amino-propylamino)butylamino]propyl-amino}acetylamino)methyl]-[1,3]dioxolan-2-yloxy}-N,N-dioctadecylbutyramide tetraacetate] | high transfection activity |
| no significant variation in fluorescence | not the case |  | CCCCCCCCCCCCCCCCCCN(CCCCCCCCCCCCCCCCCC)C(=O)CNC(=O)CNCCCNCCCCNCCCN [control cationic lipid, H2N—(CH2)3—NH—(CH2)4—NH—(CH2)3—NH—CH2—CO-Gly-N[(CH2)17—CH3]2, reference compound] | high transfection activity |
